From ChEMBL document CHEMBL1667856, “Efficient synthesis and biological evaluation of 1,3-benzenedicarbonyl dithioureas” (Bioorg Med Chem Lett, 2011) come the findings set out here.

“And” between values parts separate entries of the source, which are not always exact repeats. Equal entries are not always repeated. A value given as a limit tells only on which side of the number the result lay.

Test [1] relates to KB. Kind of test: Cytotoxicity against human KB cells after 72 hrs by MTT assay. The class given is functional, cell-based. For orientation: Tetrazolium assays rely on reduction of a dye to a coloured formazan, in cell work by metabolically active cells.
A short description of test [2]: Cytotoxicity against human CNE2 cells after 72 hrs by MTT assay. The class given is functional, cell-based, CNE-2.

Usually IC50 stands for the midpoint of a concentration-inhibition curve. Low values mean inhibition by little substance, high ones a need for much substance. Regarding `O=C(NC(=S)Nc1ccccc1O)c1cccc(C(=O)NC(=S)Nc2ccccc2O)c1`, the IC50 in test [1] (kb) was 10.7 µM and > 50 µM; in test [2] (cne-2) it was 9.91 µM and > 50 µM.
For `O=C(NC(=S)Nc1ccccc1Cl)c1cccc(C(=O)NC(=S)Nc2ccccc2Cl)c1`, the IC50 in test [1] (Homo sapiens, KB, 72 h) was 38.8 µM; in test [2] (Homo sapiens, CNE-2, 72 h) it was more than 50 µM.
In the same order, the values of `O=C(NC(=S)Nc1ccccc1Br)c1cccc(C(=O)NC(=S)Nc2ccccc2Br)c1` are 47.1 µM and more than 50 µM.
As to `O=C(NC(=S)Nc1ccccc1F)c1cccc(C(=O)NC(=S)Nc2ccccc2F)c1`, the IC50 in test [1] (Homo sapiens, KB, 72 h) amounted to 45 µM; in test [2] (Homo sapiens, CNE-2, 72 h), 38.6 µM.
For `O=C(NC(=S)Nc1ccccc1C(F)(F)F)c1cccc(C(=O)NC(=S)Nc2ccccc2C(F)(F)F)c1` the same measures were 26.1 µM and 18.5 µM.
In the same order, the values of `Cc1ccccc1NC(=S)NC(=O)c1cccc(C(=O)NC(=S)Nc2ccccc2C)c1` are more than 50 µM and more than 50 µM.
In the same order, the values of `O=C(NC(=S)Nc1cccc(Cl)c1)c1cccc(C(=O)NC(=S)Nc2cccc(Cl)c2)c1` are 12 µM and 16.3 µM.
Regarding `O=C(NC(=S)Nc1cccc(Br)c1)c1cccc(C(=O)NC(=S)Nc2cccc(Br)c2)c1`, the IC50 in test [1] (Homo sapiens, KB, 72 h) came to 15.2 µM; in test [2] (Homo sapiens, CNE-2, 72 h) it was 18.6 µM.
In the same order, the values of `O=C(NC(=S)Nc1ccc(O)cc1)c1cccc(C(=O)NC(=S)Nc2ccc(O)cc2)c1` are 20 µM and 16.6 µM.
For `O=C(NC(=S)Nc1ccc(Cl)cc1)c1cccc(C(=O)NC(=S)Nc2ccc(Cl)cc2)c1` the same measures were 13.7 µM and 15.7 µM.
With `O=C(NC(=S)Nc1ccc(Br)cc1)c1cccc(C(=O)NC(=S)Nc2ccc(Br)cc2)c1`, the IC50 in test [1] (Homo sapiens, KB, 72 h) came out at 23.2 µM; in test [2] (Homo sapiens, CNE-2, 72 h), 32.7 µM.
For `O=C(NC(=S)Nc1ccc(F)cc1)c1cccc(C(=O)NC(=S)Nc2ccc(F)cc2)c1` the same measures were 43.2 µM and 33 µM.
In the same order, the values of `Cc1ccc(NC(=S)NC(=O)c2cccc(C(=O)NC(=S)Nc3ccc(C)cc3)c2)cc1` are 15.3 µM and 33 µM.
Regarding `O=C(NC(=S)Nc1ccc([N+](=O)[O-])cc1)c1cccc(C(=O)NC(=S)Nc2ccc([N+](=O)[O-])cc2)c1`, the concentration for half-maximal inhibition (IC50) was 35.7 µM in test [1] (Homo sapiens, KB, 72 h) and more than 50 µM in test [2] (Homo sapiens, CNE-2, 72 h).
In the same order, the values of `COc1ccc(NC(=S)NC(=O)c2cccc(C(=O)NC(=S)Nc3ccc(OC)cc3)c2)cc1` are more than 50 µM and 30.3 µM.
In the same order, the values of `O=C(NC(=S)Nc1ccccc1)c1cccc(C(=O)NC(=S)Nc2ccccc2)c1` are more than 50 µM and more than 50 µM.
Turning to `O=c1[nH]cc(F)c(=O)[nH]1` [FLUOROURACIL], the IC50 in test [1] (Homo sapiens, KB, 72 h) was 15.9 µM.
